Assay results as given in US8367815B2, “Modular polynucleotides for ligand-controlled regulatory systems” (California Institute of Technology, priority 2007, dated 2013).
“And” between values parts separate entries of the source, which are not always exact repeats. Identical values can stand only once. Like-named read-outs stand apart in the source and are kept apart here.

How the values were obtained:
[1] = system: EGFP; settings: for Basal expression levels (%): GFP(%): median green fluorescence of transfected vs untransfected cells in same well, without ligand, HEK293T tTA-d2EGFP; for η (dynamic range): ratio of GFP(%) at high (3 mM) and low (1 μM) theophylline concentrations
Experimental: The functionality of shRNA switches was assessed in mammalian cell culture. Applicants transiently transfected plasmids harboring S1 and various switch controls transcribed from a U6 promoter into HEK293T cells stably expressing EGFP (Abbas-Terki et al, 2002).
In this example, Applicants systematically evaluated the tuning capabilities of shRNA switches with the aid of a mathematical model relating ligand concentration and target gene expression levels. Standard model parameters were incorporated to represent each chemical step from the proposed mechanism (Example 7). […] These assumptions yield the following relationship between relative expression levels of the target gene (f; output) and exogenous ligand concentration (L; input): f=1−e·fshRNA[1+KComp(1+KApt·L)]^−h, (1)
The power of this model lies in the ability to calculate realistic parameter values from a minimal set of experiments: fshRNA can be found in one experiment by measuring the relative knockdown of the target gene induced by an shRNA that contributes the shRNA stem, e can be calculated from basal expression levels from a few shRNA switches that strongly prefer the active conformation, and h can be calculated by generating a ligand response curve with one shRNA switch—as long as administration of the highest ligand concentration results in negligible knockdown of the target gene. The remaining model parameters, KComp and KApt, can be found from the same response curve used to calculate […], since varying KApt only changes the EC50 while varying KComp changes both EC50 and basal expression levels. A summary of the model parameters and how values are experimentally obtained are included in Table III below.
To investigate the validity of the model, Applicants experimentally determined model parameter values as described above: fshRNA was equated to the knockdown achieved with the original shRNA targeting EGFP (sh); e was calculated from the average basal expression levels produced by shRNA switches S5, S7, S9, and S10; and KComp, KApt, and h were determined by a model fit of the theophylline response curve for S1. […] The EC50 is related to KApt and KComp according to the following: EC50=(1+KComp^−1)KApt^−1, (4)
Cell culture and transfection. All cells were maintained at 37° C. in a 5% CO2-humidified incubator. HEK293T, HEK293, HeLa, and HEK293T tTA-d2EGFP cells were maintained in minimal essential medium (MEM) alpha media (Invitrogen) supplemented with 10% fetal bovine serum (FBS) (Invitrogen), whereas MDA-MB-231 cells were maintained in RMPI 1640 with glutamine (Invitrogen) supplemented with 10% FBS. Cells were transfected one day after seeding using Fugene 6 (Roche) according to the manufacturer's instructions, followed by the immediate addition of ligand. HEK293T tTA-d2EGFP were transfected with shRNA vector (250 ng), whereas cells lacking endogenous GFP were cotransfected with shRNA vector (250 ng) and the pcDNA3.1(+) (Invitrogen) harboring the d2EGFP gene (25 ng) (Clontech). One day post-transfection the media and ligand were replaced. Transfected cells were collected three days post-transfection for flow cytometry analysis.
Cell fluorescence analysis. Three days post-transfection, cells were trypsinized and subjected to flow cytometry analysis using the Cell Lab Quanta SC MPL (Beckman Coulter). Cells were first gated twice for (1) viability as assessed by electronic volume (EV) versus side scatter (SS) and (2) green fluorescence above autofluorescence to remove a nonfluorescent subpopulation.

[2] = In-line probing of S4t under varying theophylline concentrations; type: binding
Description: Individual bands from the in-line gel (FIG. 1B) were quantified and normalized to an adjacent constant region to remove bias from inconsistent well loading. C56 bands were normalized to U47 bands, while C74 bands were normalized to U100-G102 bands.
Applicants designed an initial shRNA switch (S1) to target EGFP and respond to theophylline by incorporating an EGFP-targeting guide strand and the theophylline aptamer (Zimmermann et al, 2000) into our switch platform (FIG. 1A). Applicants used in-line probing (Soukup and Breaker, 1999, incorporated herein by reference, and briefly described below) to assess the structural characteristics of a T7-transcribed variant similar to S1 (S4t; FIG. 1B). In-line probing provides structural information from the ligand dependence of spontaneous RNA cleavage. See Materials and Methods section below.
In-line probing. In-line probing was conducted as described previously (Soukup et al, 1999). After heating at 70° C. for 2 min followed by slow cooling to room temperature, 5′ radiolabeled RNAs ([…]) were incubated for 40 hours at 25° C. in varying amounts of theophylline with 50 mM Tris-HCl pH 8.5, 20 mM MgCl2. Reactions were terminated by adding an equal volume of loading buffer (10 M urea, 1.5 mM EDTA). The alkaline hydrolysis ladder was generated by incubating RNA in 50 mM NaHCO3/Na2CO3 pH 9.2, 1 mM EDTA for 6 min at 95° C. The G-specific cleavage ladder was generated by incubating RNA in 1 U RNase T1 (Ambion) with 20 mM sodium citrate pH 5.0, 1 mM EDTA, 7 M urea, and 3 μg yeast RNA for 25 min at 25° C. RNAs were resolved on an 8% denaturing polyacrylamide gel, dried for 90 min at 70° C., then visualized on an FX phosphorimager (BioRAD). Band quantification was performed using the Quantity One software package (BioRAD). To account for well loading variability, quantified band intensities were normalized to an adjacent band of similar intensity showing negligible theophylline dependence.

Molecule | Basal expression levels (%) [1] [%] | η (dynamic range) [1] | further results
S17: EGFP shRNA switch, smaller theophylline aptamer; Table I (pCS941) (CTCGAGATACCAGCCGAAAGGCCCTTGGCAGCTCGAGCTGACCCTGCTAGA) | 17.5 | 3.12 | –
S16: EGFP shRNA switch, smaller theophylline aptamer; Table I (pCS910) (CTCGATACCAGCCGAAAGGCCCTTGGCAGCGAGCTGACCCTGACTAGA) | 21.7 | 3.85 | –
S22: EGFP shRNA switch, smaller theophylline aptamer; Table I (pCS1004) (CTCGATACCAGCCGAAAGGCCCTTGGCAGCGAGCTGACCCTGAACTAGA) | 35.0 | 2.73 | –
S15: EGFP shRNA switch, smaller theophylline aptamer; Table I (pC5909) (CTCGATACCAGCCGAAAGGCCCTTGGCAGCGGGCTGACCCTGCTAGA) | 11.2 | 2.56 | –
S10: EGFP shRNA switch, larger theophylline aptamer, combined switching strand changes from S4; Table I (pCS808) (CTCGATACCAGCATCGACTCTTCGATGCCCTTGGCAGCGAGCTGACCCTGACTAGA) | 29.4 | 3.60 | –
S11: EGFP shRNA switch with theophylline aptamer variant (shorter aptamer stem); Table I (pCS634) (CTCGAGATACCAGCCGAAAGGCCCTTGGCAGCTCGGGCTGACCCTGACTAGA) | 20.0 | 4.20 | –
S24: EGFP shRNA switch, smaller theophylline aptamer; Table I (PCS1062) (CTCGAGATACCAGCCGAAAGGCCCTTGGCAGCTCGGGCTGATCCTGCTAGA) | 10.8 | 3.00 | –
S25: EGFP shRNA switch, smaller theophylline aptamer; Table I (pCS1063) (CTCGAGATACCAGCCGAAAGGCCCTTGGCAGCTCGGGCTGATCCTGACTAGA) | 11.8 | 2.63 | –
S19: EGFP shRNA switch, smaller theophylline aptamer; Table I (pCS1001) (CTCGAGATACCAGCCGAAAGGCCCTTGGCAGCTCGGGCTGACCCTGAACTAGA) | 38.3 | 2.38 | –
S12: EGFP shRNA switch with theophylline aptamer variant (shorter aptamer stem); Table I (pCS635) (CTCGAGATACCACCGAAAGGCCTTGGCAGCTCGGGCTGACCCTGACTAGA) | 13.4 | 4.06 | –
S14: EGFP shRNA switch, smaller theophylline aptamer; Table I (pCS908) (CTCGATACCAGCCGAAAGGCCCTTGGCAGCGAGCTGACCCTGCTAGA) | 14.3 | 2.86 | –
S23: EGFP shRNA switch, smaller theophylline aptamer; Table I (pCS1061) (CTCGAGATACCAGCCGAAAGGCCCTTGGCAGCTCGAGCTGATCCTGCTAGA) | 16.6 | 3.30 | –
S21: EGFP shRNA switch, smaller theophylline aptamer; Table I (pCS1003) (CTCGAGATACCAGCCGAAAGGCCCTTGGCAGCTCGGGCTGACCCTGGCTAGA) | 10.8 | 2.52 | –
S20: EGFP shRNA switch, smaller theophylline aptamer; Table I (pCS1002) (CTCGAGATACCAGCCGAAAGGCCCTTGGCAGCTCGGGCTGACCCTGAAGCTAGA) | 49.8 | 1.75 | –
S13: optimized EGFP shRNA switch, smaller theophylline aptamer; Table I (pCS911) (CTCGAGATACCAGCCGAAAGGCCCTTGGCAGCTCGGGCTGACCCTGCTAGA) | 16.7 | 5.61 | –
S18: EGFP shRNA switch, smaller theophylline aptamer; Table I (pCS942) (CTCGAGATACCAGCCGAAAGGCCCTTGGCAGCTCGAGCTGACCCTACTAGA) | 19.5 | 3.89 | –
S1: initial shRNA switch targeting EGFP, theophylline aptamer; Table I (pCS630), SEQ ID NO: 48 (nucleic acid) GGUGCAGAUGAACUUCAGGGUCAGCUCGAGAUACCAGCAUCGACUCUUCGAUGCCCUUGGCAGCUCGGGCUGACCCUGACUAGAGCUGACCCUGAAUCAUCUGCACCUU | 33.8 | 2.71 | knockdown of EGFP ([1]; compared to original shRNA (sh) and scrambled shRNA (neg), flow cytometry): intermediate knockdown; e (RNAi processing efficiency) ([1]; from average basal expression levels of switches that highly favor the active conformation): 0.85; theophylline dependence of GFP levels ([1]; in the presence of theophylline): increased in a dose-dependent manner; KComp (partitioning coefficient between active and inactive conformations) ([1]; least-squares model fit of theophylline response curve): 0.17; h (Hill coefficient) ([1]; model fit of theophylline response curve): 1.33; KApt (association constant between ligand and formed aptamer) ([1]; model fit of theophylline response curve in cells): 0.016 µM⁻¹; EC50 ([1]; read-out: effective concentration to achieve 50% activity (EC50), theophylline concentration, GFP levels, HEK293T cells stably expressing EGFP): ~300 µM; fshRNA (relative knockdown by original shRNA) ([1]; set by separate transfection with original shRNA targeting EGFP (sh), parameter of the S1 transfer function): 0.94
S4t: T7-transcribed variant similar to S1, used for in-line probing; SEQ ID NO: 51 (nucleic acid, RNA, phosphodiester; further chemistry not fully specified) GGGUCAGAUGAACUUCAGGGUCAGCUCGAGAUACCAGCAUCGACUCUUCGAUGCCCUUGGCAGCUCGGGCUGACCCUGCUAGAGCUGACCCUGAAUCAUCUGACCCUU | – | – | KComp solved from in-line assay results ([2]; equation (4) with ratio of apparent KD to KD of aptamer alone): 0.06; ratio of the apparent KD to the KD of the aptamer alone ([2]; theophylline): ~17; Kd ([2]; theophylline, Michaelis-Menten fit, C56 bands normalized to U47, read-out: KD from in-line cleavage at C56): 3.6 µM; Kd ([2]; theophylline, Michaelis-Menten fit, C74 bands normalized to U100-G102, read-out: KD from in-line cleavage at C74): 6.8 µM; Kd ([2]; theophylline, from quantifying cleavage products at two positions, read-out: apparent dissociation constant (KD)): ~5 µM and 5 µM
